Experiments:
Experiment in all cases: relative viability (nuclei count vs DMSO), 5 days (fraction); higher = more cells survive
[1] = compound: C=CCNC1=C2C[C@@H](C)C[C@H](OC)[C@H](O)[C@@H](C)/C=C(\C)[C@H](OC(N)=O)[C@@H](OC)/C=C\C=C(/C)C(=O)NC(=CC1=O)C2=O [17-AAG]
Procedure, shortened: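 Viability here means nuclei in treated wells divided by nuclei in vehicle wells, reported as the median across plates. Only plates with control CV below 25% and at least one doubling passed. Lung cancer cell lines in 1536-well plates were exposed to five √10-spaced library-drug doses for 5 days and counted from 4× Hoechst images in MetaXpress.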

[2] = compound: C=CCNC1=C2C[C@@H](C)C[C@H](OC)[C@H](O)[C@@H](C)/C=C(\C)[C@H](OC(N)=O)[C@@H](OC)/C=C\C=C(/C)C(=O)NC(=CC1=O)C2=O [17-AAG] + CC(=O)c1c(C)c2cnc(Nc3ccc(N4CCNCC4)cn3)nc2n(C2CCCC2)c1=O [Palbociclib] (partner 0.5 µM)
Procedure, shortened: (§1)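 One day after seeding in 1536-well plates, lung cancer cell lines were dosed by pin tool. Dosing was either single-drug or a fixed anchor-drug dose plus five library-drug doses (not always all listed) in √10 steps. After 5 days, nuclei were stained in one fix-and-stain step and counted on 4× images, and relative viability is the nuclei count of treated wells over that of vehicle wells, given as the median of duplicate plates.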

[3] = compound: C=CCNC1=C2C[C@@H](C)C[C@H](OC)[C@H](O)[C@@H](C)/C=C(\C)[C@H](OC(N)=O)[C@@H](OC)/C=C\C=C(/C)C(=O)NC(=CC1=O)C2=O [17-AAG] + COc1cccc2cc(-c3nc([C@H]4CC[C@H](C(=O)O)CC4)n4ncnc(N)c34)[nH]c12 [OSI-027] (partner 0.5 µM)
Procedure, shortened: as §1

[4] = compound: C=CCNC1=C2C[C@@H](C)C[C@H](OC)[C@H](O)[C@@H](C)/C=C(\C)[C@H](OC(N)=O)[C@@H](OC)/C=C\C=C(/C)C(=O)NC(=CC1=O)C2=O [17-AAG] + COc1cc2c(Oc3ccc(NC(=O)C4(C(=O)Nc5ccc(F)cc5)CC4)cc3F)ccnc2cc1OCCCN1CCOCC1 [Foretinib] (partner 0.25 µM)
Procedure, shortened: as §1

Row | Cell Line | relative viability ([1]; 0.00128 µM) | relative viability ([1]; 0.004048 µM) | relative viability ([1]; 0.0128 µM) | relative viability ([1]; 0.04048 µM) | relative viability ([1]; 0.128 µM) | relative viability ([2]; first compound 0.00128 µM) | relative viability ([2]; first compound 0.004048 µM) | relative viability ([2]; first compound 0.0128 µM) | relative viability ([2]; first compound 0.04048 µM) | relative viability ([2]; first compound 0.128 µM) | relative viability ([3]; first compound 0.00128 µM) | relative viability ([3]; first compound 0.004048 µM) | relative viability ([3]; first compound 0.0128 µM) | relative viability ([3]; first compound 0.04048 µM) | relative viability ([3]; first compound 0.128 µM) | relative viability ([4]; first compound 0.00128 µM) | relative viability ([4]; first compound 0.004048 µM) | relative viability ([4]; first compound 0.0128 µM) | relative viability ([4]; first compound 0.04048 µM) | relative viability ([4]; first compound 0.128 µM)
1 | HCC-44 | 1 | 0.976 | 0.992 | 0.278 | 0.19 | 0.944 | 1.01 | 0.991 | 0.978 | 0.914 | 0.54 | 0.429 | 0.229 | 0.141 | 0.116 |  |  |  |  | 
2 | HCC-78 | 0.935 | 1.02 | 1.01 | 0.727 | 0.425 | 0.47 | 0.464 | 0.475 | 0.442 | 0.424 | 0.375 | 0.416 | 0.405 | 0.39 | 0.384 | 0.525 | 0.574 | 0.611 | 0.516 | 0.499
3 | HCC-366 | 1.02 | 1.04 | 0.49 | 0.0512 | 0.0477 | 0.415 | 0.361 | 0.126 | 0.0306 | 0.031 | 0.942 | 0.964 | 0.117 | 0.0472 | 0.037 | 0.958 | 0.968 | 0.89 | 0.126 | 0.0491
4 | HCC-827 | 1.05 | 0.997 | 1.02 |  | 0.77 | 0.47 | 0.463 | 0.499 |  | 0.325 | 0.826 | 0.785 | 0.728 |  | 0.394 | 1.06 | 0.978 | 1.03 |  | 0.727
5 | HOP-62 | 1.03 | 0.881 | 0.904 | 0.436 | 0.126 | 0.465 | 0.451 | 0.403 | 0.268 | 0.273 | 0.879 | 0.806 | 0.6 | 0.44 | 0.112 | 1.16 | 1.05 | 0.858 | 0.549 | 0.382
6 | IA-LM | 0.954 | 0.956 | 0.874 | 0.393 | 0.118 |  |  |  |  |  |  |  |  |  |  | 1.21 | 1.05 | 1.19 | 0.491 | 0.313
7 | LC-2-ad | 0.943 | 0.974 | 0.793 | 0.27 | 0.19 | 0.553 | 0.53 | 0.494 | 0.486 | 0.172 | 0.699 | 0.542 | 0.426 | 0.301 | 0.241 | 0.891 | 0.898 | 0.515 | 0.343 | 0.261
8 | LCLC-97TM1 | 0.905 | 0.974 | 0.768 | 0.677 | 0.123 | 0.264 | 0.213 | 0.199 | 0.251 | 0.209 | 0.506 | 0.575 | 0.392 | 0.241 | 0.18 | 0.973 | 0.897 | 0.958 | 0.991 | 0.631
9 | LCLC-103H | 1.02 | 1 | 0.957 | 1.04 | 1.07 | 0.5 | 0.471 | 0.489 | 0.477 | 0.464 | 0.484 | 0.496 | 0.478 | 0.515 | 0.383 | 0.874 | 0.818 | 0.736 | 0.932 | 1.01
10 | LK-2 | 1.17 | 1 | 0.816 | 0.519 | 0.159 | 0.849 | 0.64 | 0.644 | 0.236 | 0.0922 | 0.26 | 0.225 | 0.151 | 0.138 | 0.144 | 1.09 | 1.11 | 1.21 | 1.26 | 0.25
11 | LOU-NH91 | 0.928 | 0.819 | 0.571 | 0.435 | 0.354 | 0.537 | 0.51 | 0.463 | 0.349 | 0.394 | 0.666 | 0.618 | 0.443 | 0.359 | 0.316 | 0.868 | 0.727 | 0.633 | 0.36 | 0.279
12 | NCI-H522 | 0.805 | 1.09 | 0.782 | 0.602 | 0.433 | 1.02 | 1.15 | 0.896 | 0.647 | 0.419 | 0.663 | 0.685 | 0.655 | 0.542 | 0.552 |  |  |  |  | 
13 | NCI-H596 | 0.931 | 0.917 | 0.955 | 0.816 | 0.404 |  |  |  |  |  | 0.742 | 0.713 | 0.854 | 0.519 | 0.274 | 0.923 | 0.749 | 0.923 | 0.698 | 0.397
14 | NCI-H1299 | 1.01 | 0.977 | 0.981 | 0.931 | 0.538 |  |  |  |  |  |  |  |  |  |  | 1.12 | 1.03 | 1.08 | 1.04 | 0.945
15 | NCI-H1563 | 1.03 | 0.893 | 0.599 | 0.629 | 0.519 |  |  |  |  |  | 0.755 | 0.647 | 0.564 | 0.509 | 0.481 | 1.04 | 0.83 | 0.559 | 0.549 | 0.5
16 | NCI-H1648 | 0.888 | 1.08 | 0.839 | 0.673 | 0.59 |  | 0.348 | 0.32 | 0.431 | 0.387 | 0.274 |  | 0.345 | 0.261 | 0.259 |  |  |  |  | 
17 | NCI-H1703 | 0.911 | 0.734 | 0.173 | 0.191 | 0.145 |  |  |  |  |  |  |  |  |  |  | 0.325 | 0.331 | 0.215 | 0.229 | 0.191
18 | NCI-H1792 | 0.888 | 0.772 | 0.347 | 0.165 | 0.181 | 0.592 | 0.635 | 0.542 | 0.459 | 0.278 | 0.691 | 0.765 | 0.619 | 0.574 | 0.273 |  |  |  |  | 
